The test system of one test is aerobic plate count. As to the kind of experiment: Aerobic plate counts (APC) on produce treated in a 4-L tank.
A further test deals with yeasts and molds. The test can be described thus: Yeast and mold (Y&M) counts on produce and in treatment solution, 4-L tank.
In another test the test system is S. typhimurium. The test can be described thus: S. typhimurium counts on produce (apples, celery, onions, cantaloupes) and in treatment solution, 4-L tank.
For another test, the system named is various yeast species. The test can be described thus: Effect of levulinic acids plus SDS at 21° C. on various yeast species. The test is classed as cell-based. Conditions: for Yeast counts at min: 1: 1 min; for Yeast counts at min: 2: 2 min; for Yeast counts at min: 5: 5 min; for Yeast counts at min: 10: 10 min; for Yeast counts at min: 20: 20 min; for Yeast counts at min: 30: 30 min; for Yeast counts at min: 60: 60 min.

A further test has as its system S. enteritidis. The test can be described thus: Reduction of S. enteritidis in water treated with organic acids and SDS. The test is classed as cell-based, Salmonella enteritidis.
The next test has as its system S. typhimurium DT 104. The test is classed as cell-based, Salmonella typhimurium DT104. Conditions: water, 21° C.
For another test, the system named is L. monocytogenes. It counts as cell-based, Listeria monocytogenes. Conditions: 21° C.
Test [1] has as its system spores of Bacillus anthracis Sterne. It counts as cell-based, Bacillus anthracis Sterne (34F2).

This is an account of results in patent US20120129928A1, “Chlorine-Free Liquid Microbicide Treatment” (University of Georgia Research Foundation, Inc., priority 2010, published 2012).

Where “and” joins values, the source holds several entries; their conditions need not be identical. Equal values may be shown once. Read-outs that look alike come from different tables or passages of the source.

For “acidified sodium chlorite [50 ppm acidified sodium chlorite]”, the “reduction of APC on onions” value in the test on aerobic plate count is recorded as under 0.5 log CFU per onion. For the same compound, in the test with yeasts and molds, the “reduction of yeast and mold counts on onions” value is given as under 0.5 log CFU per onion. Besides, the “reduction of S. typhimurium on onions” value in the test with S. typhimurium is under 0.5 log CFU per onion.

Take `CC(=O)CCC(=O)O` [2.0% levulinic acids]: in the test on various yeast species (Candida magnoliae), the “Yeast counts at min: 1” value amounted to 5.9 log CFU/ml, the “Yeast counts at min: 2” value stood at 5.9 log CFU/ml, the “Yeast counts at min: 5” value came to 5.9 log CFU/ml and the “Yeast counts at min: 10” value stood at 6.0 log CFU/ml. In the test with various yeast species (Candida magnoliae), the “Yeast counts at min: 20” value is 6.0 log CFU/ml, the “Yeast counts at min: 30” value stood at 5.9 log CFU/ml and the “Yeast counts at min: 60” value worked out at 5.8 log CFU/ml.

As to `CC(=O)CCC(=O)O` [2% levulinic acid], in the test on various yeast species (Zygosaccharomyces bailii), the “Yeast counts at min: 1” value is reported as 5.4 log CFU/ml, the “Yeast counts at min: 2” value is listed as 5.5 log CFU/ml, the “Yeast counts at min: 5” value worked out at 5.4 log CFU/ml and the “Yeast counts at min: 10” value is on record as 5.4 log CFU/ml. Moreover, in the test with various yeast species (Zygosaccharomyces bailii), the “Yeast counts at min: 20” value worked out at 5.4 log CFU/ml, the “Yeast counts at min: 30” value is 5.4 log CFU/ml and the “Yeast counts at min: 60” value is 5.3 log CFU/ml.

Regarding `CC(=O)O` [0.5% acetic acid, acetic acid], the S. enteritidis counts with S. enteritidis (water, 21° C., 0 min) came to 7.1 log CFU/ml; with S. enteritidis (water, 21° C., 2 min), 7.0 log CFU/ml; with S. enteritidis (water, 21° C., 5 min) it was 6.8 log CFU/ml; in the test on S. enteritidis (water, 21° C., 10 min) it was 6.7 log CFU/ml; in the test on S. enteritidis (water, 21° C., 20 min), 6.6 log CFU/ml; in the test with S. enteritidis (water, 21° C., 30 min) it was 6.5 log CFU/ml.

Turning to `CCCCCCCCCCCCOS(=O)(=O)[O-].[Na+]` [1.0% SDS], in the test with various yeast species (Candida magnoliae), the “Yeast counts at min: 1” value was 3.5 log CFU/ml, the “Yeast counts at min: 2” value is reported as 3.3 log CFU/ml, the “Yeast counts at min: 5” value is reported as 3.2 log CFU/ml and the “Yeast counts at min: 10” value turned out to be 3.2 log CFU/ml. Further, in the test with various yeast species (Candida magnoliae), the “Yeast counts at min: 20” value is listed as 2.7 log CFU/ml, the “Yeast counts at min: 30” value is 3.0 log CFU/ml and the “Yeast counts at min: 60” value is 3.1 log CFU/ml. Moreover, in the test with various yeast species (Debaryomyces hansenii), the “Yeast counts at min: 1” value came out at 4.5 log CFU/ml, the “Yeast counts at min: 2” value was 4.1 log CFU/ml, the “Yeast counts at min: 5” value is 4.5 log CFU/ml and the “Yeast counts at min: 10” value is given as 4.4 log CFU/ml. Further, in the test on various yeast species (Debaryomyces hansenii), the “Yeast counts at min: 20” value was 4.5 log CFU/ml, the “Yeast counts at min: 30” value is 4.5 log CFU/ml and the “Yeast counts at min: 60” value was 4.4 log CFU/ml. Further, in the test on various yeast species (Geotrichum candidum), the “Yeast counts at min: 1” value is on record as 3.8 log CFU/ml, the “Yeast counts at min: 2” value was found to be 3.3 log CFU/ml, the “Yeast counts at min: 5” value came out at 3.5 log CFU/ml and the “Yeast counts at min: 10” value stood at 3.7 log CFU/ml. Besides, in the test with various yeast species (Geotrichum candidum), the “Yeast counts at min: 20” value stood at 3.5 log CFU/ml, the “Yeast counts at min: 30” value was determined as 3.4 log CFU/ml and the “Yeast counts at min: 60” value was found to be 3.3 log CFU/ml. In addition, in the test on various yeast species (Saccharomyces cerevisiae), the “Yeast counts at min: 1” value is 2.4 log CFU/ml, the “Yeast counts at min: 2” value amounted to 2.6 log CFU/ml, the “Yeast counts at min: 5” value is 2.3 log CFU/ml and the “Yeast counts at min: 10” value is on record as 2.8 log CFU/ml. Further, in the test with various yeast species (Saccharomyces cerevisiae), the “Yeast counts at min: 20” value is given as 2.7 log CFU/ml, the “Yeast counts at min: 30” value is recorded as 2.3 log CFU/ml and the “Yeast counts at min: 60” value was found to be 2.4 log CFU/ml. Besides, in the test on various yeast species (Zygosaccharomyces bailii), the “Yeast counts at min: 1” value came to 4.7 log CFU/ml, the “Yeast counts at min: 2” value is recorded as 4.6 log CFU/ml, the “Yeast counts at min: 5” value is reported as 4.6 log CFU/ml and the “Yeast counts at min: 10” value was determined as 4.6 log CFU/ml. Besides, in the test with various yeast species (Zygosaccharomyces bailii), the “Yeast counts at min: 20” value amounted to 4.5 log CFU/ml, the “Yeast counts at min: 30” value was determined as 4.5 log CFU/ml and the “Yeast counts at min: 60” value amounted to 4.4 log CFU/ml.

Take `CCCCCCCCCCCCOS(=O)(=O)[O-].[Na+]` [SDS, sodium dodecyl sulfate]: the Salmonella reduction entry in the test on S. enteritidis is given as “did not reduce”. In the test with S. enteritidis (sulfate), the S. enteritidis counts is 7.1 log CFU/ml and 7.0 log CFU/ml and 7.2 log CFU/ml. The “S. typhimurium DT 104 counts” value in the test with S. typhimurium DT 104 (0 min) is 7.0 log CFU/ml; with S. typhimurium DT 104 (1 min), 7.0 log CFU/ml; with S. typhimurium DT 104 (2 min), 6.8 log CFU/ml; in the test on S. typhimurium DT 104 (5 min) it was 6.9 log CFU/ml; with S. typhimurium DT 104 (10 min), 6.8 log CFU/ml; in the test on S. typhimurium DT 104 (20 min) it was 6.9 log CFU/ml. Further, the “S. typhimurium DT 104 counts” value in the test with S. typhimurium DT 104 (30 min) and in the test with S. typhimurium DT 104 (60 min) was 6.9 log CFU/ml throughout. Also, the L. monocytogenes counts in the test on L. monocytogenes (0 min) stood at 6.6 ± 0.3 log CFU/ml; in the test with L. monocytogenes (2 min), 6.4 ± 0.1 log CFU/ml; in the test on L. monocytogenes (5 min), 6.0 ± 0.1 log CFU/ml; in the test with L. monocytogenes (10 min), 5.0 ± 0.3 log CFU/ml; in the test with L. monocytogenes (20 min) it was 3.8 ± 0.2 log CFU/ml; in the test with L. monocytogenes (30 min) it was 3.3 ± 0.1 log CFU/ml. In addition, the “CFU % recovery (as compared to control flask F)” value (“CFU % recovery” for short) turned out to be 65% in test [1] (Experiment A3, 10 min); 94% in test [1] (Experiment A3, 45 min); 95% in test [1] (Experiment A3, 180 min); 85% in test [1] (Experiment A4 absent heat, RT, 0 min); 90% in test [1] (Experiment A4 absent heat, RT, 1 h); 87% in test [1] (Experiment A4 absent heat, RT, 2 h). The “CFU % recovery” value in test [1] (Experiment A4 absent heat, RT, 3 h) is reported as 98%; in test [1] (Experiment A4 absent heat, RT, 4 h), 79%; in test [1] (Experiment A4 with heat, 65° C., 0 min), 48%; in test [1] (Experiment A4 with heat, 65° C., 1 h), 53%; in test [1] (Experiment A4 with heat, 65° C., 2 h), 74%; in test [1] (Experiment A4 with heat, 65° C., 3 h), 68%. For the same compound, the “CFU % recovery” value in test [1] (Experiment A5 with heat, 65° C., 0 min) came out at 71%; in test [1] (Experiment A5 with heat, 65° C., 1 h), 69%; in test [1] (Experiment A5 with heat, 65° C., 2 h), 53%; in test [1] (Experiment A5 with heat, 65° C., 3 h), 71%; in test [1] (Experiment A5 with heat, 65° C., 4 h), 54%.
